This assay deals with NIH3T3. Description: Cytotoxicity against mouse NIH/3T3 cells assessed as cell viability after 48 hrs by MTT assay. It counts as cell-based. The following applies: NIH3T3, 48 h.

The structures appear in SMILES notation.

Take `Clc1ccc2nc(-c3ccc(Oc4c(-c5ccc(Br)cc5)nc5ccc(Cl)cc5c4-c4ccccc4)cc3)cc(-c3ccccc3)c2c1`: the IC50 (as a rule, the concentration at which inhibition is half-maximal) amounted to 333 µM.

For the compound `Clc1ccc2nc(-c3ccc(Oc4c(-c5cccc(Br)c5)nc5ccc(Cl)cc5c4-c4ccccc4)cc3)cc(-c3ccccc3)c2c1`, the IC50 came out at 887 µM.

The values are drawn from ChEMBL document CHEMBL1949623, “Camphorsulfonic acid catalysed facile tandem double Friedlander annulation protocol for the synthesis of phenoxy linked bisquinoline derivatives and discovery of antitubercular agents” (Bioorg Med Chem Lett, 2012).
